Test results reported in publication PMC8129988 (Inorganic Chemistry Frontiers, 2021).

Experiments:
[1] = serum stability in fetal calf serum (HPLC-MS); format: in vitro ADME; conditions: 37 °C
Protocol: Therefore, we only investigated the stability of the novel complexes in fetal calf serum (FCS). As reference again Co(acac)2LEGFR[26] was included. The complexes were dissolved in 50 mM phosphate puffer and mixed 1 : 10 with fetal calf serum (FCS; buffered with 150 mM phosphate buffer to keep a stable pH of 7.4) to a final concentration of 50 μM. The samples were incubated at 37 °C and after 0, 2, 4, 6, 24 and 26 h extracted with acetonitrile and measured by HPLC-MS. […] This indeed confirms, that by avoiding the direct attachment of the ethylenediamine moiety to an aromatic ring system, complexes with much higher stability can be generated. Since no distinct difference in stability between Co(acac)2LPon and Co(Meacac)2LPon within 26 h could be observed, measurements were repeated up to 72 h.
For serum stability measurements, 135 μL FCS, buffered with 150 mM phosphate (Na2HPO4/NaH2PO4) to maintain a pH value of 7.4, were mixed with 15 μL of a 500 μM stock solution of the respective complex in 50 mM phosphate buffer to reach a final concentration of 50 μM. The samples were incubated at 37 °C. At different time points to 20 μL serum 40 μL of ACN were added. After vigorously shaking for 2 min the suspension was centrifuged at 6000 rpm for 10 min. The supernatant was taken with a syringe and directly measured via HPLC-MS. The samples were analyzed on an Agilent 1260 Infinity system using a Waters Atlantis T3 column (150 mm × 4.6 mm) coupled to a Bruker Amazon SL ESI-IT mass spectrometer. Water and acetonitrile (both containing 0.1% formic acid) were used as eluents with a gradient of 1–99% acetonitrile within 29 min.

UM-UC-14 cells = experiment: ligand release by UV fluorescence microscopy; format: cell-based, human; conditions: 10 μM, 24 h, UM-UC-14, fluorescence microscopy
Protocol: The enhanced stability of Co(acac)2LPon under normoxia and its hypoxia-induced ligand release was subsequently confirmed by fluorescence microscopy. Fluorescence intensities indicated a ∼2.8-fold decreased stability of the cobalt(III) complex under hypoxic vs. normoxic cell culture conditions.
UM-UC-14 cells were seeded (2.5 × 10^5 cells per well) in 12-well plates and after 24 h recovery treated with 10 μM of compounds. After 24 h incubation, the drug solutions were removed, cells were washed with PBS and microphotographs of the different treatments were taken using UV fluorescence microscopy (Nikon Eclipse Ti2 microscope with a DAPI filter and a high-pressure mercury lamp) and a 20× objective. The level of cellular fluorescence was determined from fluorescence microscopy images using ImageJ software.
Figure S9: Ligand release of Co(acac)2LPon under normoxic and hypoxic cell culture conditions in comparison to LPon using UV fluorescence microscopy. UM-UC-14 cells were incubated with 10 µM of compounds for 24 h. Images of the different treatments were taken by UV fluorescence microcopy (20X objective) and the corrected total cell fluorescence was evaluated using ImageJ software. Data in Figure S9B are given as means ± SD of ten analyzed microphotographs per compound. Statistical significance was calculated by unpaired t test with p < .05(*). […]

[2] = test system: p-ERK1/2 and p-S6 in K-562 cells; experiment: western blot of downstream signalling, 12 h; format: cell-based, human; conditions: hypoxic conditions, K-562, 12 h
Protocol: Fig. 10 Impact of the cobalt(III) complexes on the ERK1/2 and S6 under normoxic and hypoxic conditions. K-562 cells were treated with the compounds, after 12 h cell lysates were prepared and protein expression as well as phosphorylation levels of downstream pathways (p-ERK1/2 and p-S6) analyzed by western blotting. One representative experiment out of three is shown. The ratio of phosphorylated to total protein is given between the respective lanes.
K-562 cells were plated (5 × 10^5 cells per well) in 6-well plates and allowed to recover for 24 h. Subsequently, the cells were treated with the drugs in different concentrations. After 12 h cells were harvested, proteins were isolated, resolved by sodium dodecyl sulfate polyacrylamide gel electrophoresis (SDS/PAGE), and transferred onto a polyvinylidene difluoride membrane for western blotting. The following antibodies were used: ERK1/2 (p44/42) rabbit monoclonal antibody (mAb) (137F5, #4695), phospho-ERK1/2 rabbit mAb (Thr202/Tyr204) (20G11, #4376), phospho-S6 rabbit pAb (Ser240/244, #2215) (Cell Signaling Technology, Beverly, MA, USA), S6 mouse mAb (C-8. #sc-74459) (Santa Cruz Biotechnology, TX, USA) and β-actin mouse mAb (#A5441, Sigma). All primary antibodies were used in 1 : 1000 dilutions (in Tris-buffered saline containing 0.1% Tween20 (TBST) + 3% bovine serum albumin (BSA)). Secondary goat anti-mouse-IgG (Fc specific)-peroxidase antibody (#A0168, Sigma) and horseradish peroxidase(HRP)-labeled mouse anti-rabbit IgG (#sc-2357, Santa Cruz Biotechnology) were used at working dilutions of 1 : 10 000 (in TBST + 1% BSA).

For `CC(=O)C=C(C)[O-].CC(=O)C=C(C)[O-].Cc1ccc(C(=O)Nc2ccc(CNCCN)c(C(F)(F)F)c2)cc1C#Cc1cnc2cccnn12.O=C(O)C(F)(F)F.[Co+3]` [Co(acac)2LPon, Bis(2,4-pentanedionato)N-(4-(((2-aminoethyl)amino)methyl)-3-(trifluoromethyl)phenyl)-3-(imidazo[1,2-b]pyridazin-3-ylethynyl)-4-methylbenzamide cobalt(III) 2,2,2-trifluoroacetate], the “intact complex remaining in FCS” value ([1]; 26 h, pH 7.4, 50 μM) was roughly 90%, the “intact compound remaining in FCS” value ([1]; 72 h, pH 7.4) was roughly 70% and the “fluorescence intensity change (decreased stability) hypoxic vs. normoxic” value (UM-UC-14 cells) was roughly 2.8 fold. For the same compound, the “activity on S6 phosphorylation compared with ponatinib” value [2] was “equally active as compared to ponatinib”.
